According to US20250082649A1, “ALTERATION OF NUTRIENT PREFERENCES VIA MODULATION OF NUTRIENT RECEPTORS IN THE GUT” (The Trustees of Columbia University in the City of New York, priority 2022, published 2025):
“Also recorded” adds a separate entry of the source.

Columns and labels:
mice = test: Brief-access (30 min) two-bottle tests, immediate attraction; assay type: in vivo; conditions: 30 min two-bottle test, 3 mM AceK or 1.5% Intralipid, n=9 mice
Experimental: Two-bottle preference assays. No behavioral experiments, including the short-term assays for taste responses, or the 48 h tests examining the development of sugar or fat preference used water-restricted or food-deprived mice. Mice were given ad libitum access to food and water for several days prior to the behavioral tests; any food or water restriction would severely affect the mice's behavior in preference or taste responses. Development of fat preference: mice were first tested for their initial preference between 1.5% Intralipid and 3 mM AceK (pre testing) by completing 100 drinking trials. Each trial was initiated by the first lick and lasted for 5 s; the drinking ports then re-opened after 30 s of inter-trial interval. Next, mice were exposed to 500 licks to both 1.5% Intralipid and 3 mM AceK; this was repeated twice. […] The pre and post-preference indexes were calculated by dividing the number of licks to fat by the total lick count during the first 2-4 h (100 trials) of baseline measurements (pre) and during the last 2-4 h (100 trials) of the behavioural session (post), respectively. […] The ‘pre’ preference index was calculated as the number of licks to fat divided by the total lick count during the first 4 h; the “post” preference index was calculated as the number of licks to fat divided by the total lick count during the last 4 h of the session. […]

vagal sensory neurons = test: Vagal calcium imaging (nodose ganglion, GCaMP6s) with intestinal delivery of stimuli; assay type: in vivo, mice; conditions: for responding vagal neurons of imaged neurons: intestinal delivery, 10% fatty acid or pre-digested Intralipid, FIG. 10E-10I stimuli interleaved with 10% LA (10 s)
Experimental: To directly examine and monitor the fat responses of vagal sensory neurons, functional imaging of the nodose ganglion (which contains the cell bodies of vagal neurons) was performed. The genetically encoded activity sensor GCaMP6s was targeted to vagal sensory neurons using Vglut2-Cre animals, and a one-photon calcium imaging set-up was used coupled to synchronous intestinal delivery of fat, sugar and other stimuli to record neuronal responses in vivo, with real time kinetics (FIG. 2E, FIG. 10A, FIG. 10B, FIG. 10C). To administer the stimuli, a catheter was placed into the duodenal bulb, and an exit port was created by transecting the intestine 10 cm distally. During each imaging session, the intestine was exposed to a pre-stimulus application of PBS, a 10 s or 60 s exposure to the test stimulus, and a 200 s post-stimulus wash; this regime was repeated at least 3 times for each stimulus.
Fat, sugar and amino acid intestinal stimulation. Stimuli for nodose imaging experiments were as follows. Sugar: 500 mM glucose. Amino acids: a mix consisting of 50 mM methionine, 50 mM serine, 50 mM alanine, 50 mM glutamine and 50 mM cysteine dissolved in PBS. Fat: 10% linoleic acid, 10% linolenic acid, 10% hexanoic acid, 10% DHA, 10% oleic acid, diluted in PBS containing 0.1% xanthan gum and 0.05% Tween 80, and vortexed for a minimum of 10 min. Vehicle control: 0.1% xanthan gum and 0.05% Tween 80. For sugar and fat intestinal stimulation in imaging experiments, a 10 s window of stimulation was used; for amino acids, a 60 s stimulus was used, as lower concentrations of each in the mix of several amino acids was used (see above). Note that if using Intralipid mix (a 20% soy bean oil emulsion, Santa Cruz) for nodose imaging experiments (rather than consumption where it would be naturally digested and broken down into short, medium and long chain fatty acids), the material was pre-digested with lipases (mimicking its natural course of action upon ingestion). […] Intralipid was incubated with 4 mg/ml lipase (sigma) in PBS plus 10 mM CaCl2 for a minimum of 5 h at 37° C.
Vagal calcium imaging. Each mouse was anaesthetized with ketamine (100 mg/kg) and xylazine (10 mg/kg). […] For glutamate receptor blocker experiments, a mixture of metabotropic glutamate receptor antagonist AP3 (2 mg/kg) and ionotropic glutamate receptor antagonist kynurenic acid (300 μg/kg) was used. CCKAR and glutamate receptor blockers were delivered both into the intestines and abdominal cavity; after a 5 min incubation period, the imaging session was started.
Calcium imaging data collection and analysis. […] Data was acquired at 5 Hz. A single field of view was chosen for recording and analysis from each ganglion. Calcium imaging data collected at 5 Hz was down-sampled by a factor of 2, and the images were stabilized using the NORMCorre algorithm. Motion-corrected movies were then manually segmented in ImageJ using the Cell Magic Wand plugin. Neuropil fluorescence was subtracted from each region of interest with the FISSA toolbox, and neural activity was denoised using the OASIS deconvolution algorithm. […] For experiments using blockers, two repeat trials per stimuli were used to accommodate the expanded time scale of the session (that is, before and after), and a neuron was considered a responder if it responded in both trials. The two-trial average area under curve for each stimulus was used to quantify the before and after responses (FIG. 12D, FIG. 12E). Imaging data is presented as heat maps of z-score-normalized responses.

cNST neurons = test: Fibre photometry of cNST activity in response to intestinal delivery of stimuli; assay type: in vivo, mice; conditions: Penk-Cre animals
Experimental: Fibre photometry. Vglut2-cre; Ai96 mice were placed in a stereotaxic frame and implanted with a 400 μm core, 0.48 NA optical fibre (Doric Lenses) 50-100 μm over the left cNST. […] To quantify the effects of vagotomy, the ratio of stimulus-related peak amplitude of the normalized trace was calculated (within 120 s of stimulus onset) prior vagotomy versus after vagotomy. […] Stimulus delivery was performed via a series of peristaltic pumps (BioChem Fluidics) operated via custom Matlab software and Arduino microcontroller. Stimuli and washes were delivered through separate lines that converged on a common perfusion manifold (Warner Instruments) connected to the duodenal catheter. Trials consisted of a 60-s baseline (PBS 200 μl/min), a 30 s stimulus (200 μl/min), and a 3-min washout period (150 s at 600 μl/min, and 30 s at 150 μl/min). Stimuli were each presented three times in an interleaved fashion.

cNST = test: Fos stimulation and histology, cNST; assay type: in vivo, mice; conditions: 90 min exposure; 20% Intralipid, 10% linoleic acid or 10% oleic acid vs xanthan gum / mineral oil controls
Text: Separate cohorts of animals were exposed to 3 different lipid stimuli (Intralipid, linoleic acid, or oleic acid) and to fat-free textural controls (xanthan gum or mineral oil). […] The cNST is a nexus of interoceptive signals conveying information from the body to the brain via the gut-brain axis. If the fat-activated brain cNST neurons are receiving signals originating in the gut, then direct delivery of fat stimuli into the gut should also induce activation of the cNST. An intragastric catheter was implanted in the stomach and infused either a fat solution or a vehicle control. Intragastric infusion of fat, but not of a vehicle, is sufficient to activate the cNST as robustly as oral ingestion (FIG. 1E, FIG. 1F, FIG. 8J, FIG. 8K, FIG. 8L).
Fos stimulation and histology. Stimuli consisted of 20% Intralipid (sc215182, Santa Cruz Biotechnology), 10% linoleic acid, 10% oleic acid, 0.3% xanthan gum or 10% mineral oil. Stimuli were emulsified by dilution into milliQ water containing 0.1% xanthan gum and 0.05% Tween 80, and vortexed for a minimum of 10 min. […] Quantification of Fos labelling was carried out by recording the number of positive neurons in an equivalent 200×200 um area of the cNST (bregma—7.5 mm) and area postrema. […]

vagal neurons = test: CCK application in vagal calcium imaging; assay type: in vivo, mice; conditions: 1 μg/ml CCK, 60 s
Text: Calcium imaging data collection and analysis. […] Data was acquired at 5 Hz.

CC1=CC(=O)[N-]S(=O)(=O)O1.[K+] [AceK, acesulfame K]
immediate attraction versus water (mice): strong innate attraction

CC/C=C\C/C=C\C/C=C\CCCCCCCC(=O)O [alpha-linolenic acid]
responding vagal neurons of imaged neurons (vagal sensory neurons): 49/322

CN1C(=O)[C@@H](NC(=O)c2cc3ccccc3[nH]2)N=C(c2ccccc2)c2ccccc21 [devazepide, Devazepide]
cNST responses to intestinal fat stimulation after removing CCK-dependent signaling (cNST neurons; photometric recordings, n=5): ~50% | cNST sugar-evoked responses after inhibiting signaling via the CCK dependent pathway (cNST neurons; photometric recordings, n=5): completely abolished

CC/C=C\C/C=C\C/C=C\C/C=C\C/C=C\C/C=C\CCC(=O)O [docosahexaenoic acid]
responding vagal neurons of imaged neurons (vagal sensory neurons): 51/348

CCCCCC(=O)O [hexanoic acid]
responding vagal neurons of imaged neurons (vagal sensory neurons): 52/495

CCCCC/C=C\C/C=C\CCCCCCCC(=O)O [linoleic acid]
neurons that responded only to fat (fat-only responders) (vagal sensory neurons; 10% linoleic acid and 500 mM glucose, 10 s, 1813 neurons imaged, 22 vagal ganglia): 153 | TRPA1-expressing vagal neurons responding to fat (vagal sensory neurons; Trpa1-Cre, Ai162, 163 imaged neurons from 5 ganglia, 10% linoleic acid): ~24% | subset of vagal neurons with evoked responses, % of GCaMP-expressing Vglut2 neurons (vagal sensory neurons; intestinal infusion, Vglut2-Cre animals): 17% | vagal neuron responses to intestinal delivery (vagal sensory neurons; vs vehicle control (0.1% xanthan gum plus 0.05% Tween 80)): strong responses; also recorded: robust responses | Fos labelling in cNST upon ingestion (cNST): strong Fos labelling; also recorded: strong bilateral activation | cNST neural responses to intestinal delivery (cNST neurons; 10% linoleic acid or 500 mM glucose, n=4 mice): robust, time-locked responses

CCCCCCCC/C=C\CCCCCCCC(=O)O [oleic acid]
responding vagal neurons of imaged neurons (vagal sensory neurons): 39/418 | Fos labelling in cNST upon ingestion (cNST): strong Fos labelling; also recorded: strong bilateral activation

Cholecystokinin [CCK]
activation of fat-only vagal neurons (vagal neurons): not the fat-only vagal neurons | activation of sugar/nutrient responding vagal neurons (vagal neurons): all sugar/nutrient responders were activated; also recorded: also responded to CCK | activation of sugar/nutrient responding vagal neurons (vagal neurons; listed as CCK peptide): strongly activated
